Laboratory results from patent US6887873B2, “Triazine derivatives and their application as antitelomerase agents” (Aventis Pharma S.A., priority 2001, dated 2005).

test system: A549 cells; experiment: Cytotoxic activity on human tumour line A549, neutral red, 96 hours; assay type: cell-based; conditions: A549; read-out: Cytotox. A549 IC50
Method: The cytotoxic biological activity on human tumour lines is determined according to the following experimental protocol:
The human cell lines A549 are obtained from ATCC (American Type Culture Collection, Rockville, USA). The A549 cells are cultured in a layer in a culture flask in RPMI 1640 medium containing L-glutamine at 2 mM, penicillin 200 U/ml, streptomycin 200 μg/ml and supplemented with 10% heat-inactivated foetal calf serum. The KB cells are cultured in a layer in a culture flask in Dulbelco's medium containing L-glutamine at 2 mM, penicillin 200 U/ml, streptomycin 200 μg/ml and supplemented with 10% heat-inactivated foetal calf serum.
The cells at the exponential growth phase are trypsinized, washed in 1×PBS and are inoculated in 96-well microplates (Costar) in an amount of 4×10^4 cells/ml for A549 and of 1.5×10^4 cells/ml (0.2 ml/well) and then incubated for 96 hours in the presence of variable concentrations of product to be studied (10, 1, 0.1 and 0.01 μM, each point in quadruplicate). 16 hours before the end of the incubation, 0.02% final of neutral red is added to each well. At the end of the incubation, the cells are washed with 1×PBS and lysed with 1% sodium lauryl sulphate. The cellular incorporation of the dye, which reflects cellular growth, is evaluated by spectro-photometry at a wavelength of 540 nm for each sample with the aid of a Dynatech MR5000 reading apparatus.
For each compound concentration tested, the results are expressed as percentage of inhibition of cellular growth and calculated from the untreated control and the culture medium free of cells (blank) according to the following formula: (compound value−blank value/cell control value−blank value)×100.
The concentration of compound inducing a 50% inhibition of growth (IC50) is determined with the aid of a semilogarithmic graphical representation of the inhibition values obtained as a function of each of the compound concentrations tested.
A compound is considered to be active as cytotoxic agent if the concentration inhibiting the growth of the tumour cells tested by 50% is in particular less than 10 μM.

SMILES | IC50 [nM]
Cc1cc(N(C)C)c2cc(Nc3nc(NCc4ccncc4)nc(Nc4ccc5nc(C)cc(N(C)C)c5c4)n3)ccc2n1 [Example 27, 2,4-bis(4-dimethylamino-2-methylquinolin-6-yl)amino-6-(pyridin-4-yl)methylamino-[1,3,5]triazine] | 1000
Cc1cc(N(C)C)c2cc(Nc3nc(NCc4ccncc4)nc(Nc4ccc5nc(C)cc(N(C)C)c5c4)n3)ccc2n1 [Example 145] | 420

same assay, conditions: Homo sapiens, A549, A549; read-out: Cytotox. A549 IC50

SMILES | IC50 [nM]
Cc1cc(N(C)C)c2cc(Nc3nc(NCCCN(C)C)nc(Nc4ccc5nc(C)cc(N(C)C)c5c4)n3)ccc2n1 [Example 1, 2,4-bis(4-dimethylamino-2-methylquinolin-6-yl)amino-6-(3-dimethylaminopropyl)amino-[1,3,5]triazine] | 230
Cc1cc(N)c2cc(Nc3nc(Nc4ccc5nc(C)cc(N)c5c4)nc(Nc4ccc5nc(C)cc(N)c5c4)n3)ccc2n1 [Example 2, 2,4,6-tris(4-amino-2-methylquinolin-6-yl)amino-[1,3,5]triazine] | 10000
Cc1cc(N)c2cc(Nc3nc(Nc4ccc5nc(C)cc(N(C)C)c5c4)nc(Nc4ccccc4Cl)n3)ccc2n1 [Example 3] | 6000
Cc1cc(N)c2cc(Nc3nc(Nc4ccc(N5CCNCC5)cc4)nc(Nc4ccc5nc(C)cc(N)c5c4)n3)ccc2n1 [Example 15] | 1850
Cc1cc(N)c2cc(Nc3nc(Nc4ccc5nc(C)cc(N)c5c4)nc(NC4CN5CCC4CC5)n3)ccc2n1 (stereo not drawn) [Example 17, 2,4-bis(4-amino-2-methylquinolin-6-yl)amino-6-(quinuclidin-3-yl)amino-[1,3,5]triazine] | 2730
Cc1cc(N(C)C)c2cc(Nc3nc(Nc4ccncc4)nc(Nc4ccc5nc(C)cc(N(C)C)c5c4)n3)ccc2n1 [Example 18] | 2860
Cc1cc(N(C)C)c2cc(Nc3nc(Nc4ccc5nc(C)cc(N(C)C)c5c4)nc(C4CCN(C)CC4)n3)ccc2n1 [Example 19, 2,4-bis(4-dimethylamino-2-methylquinolin-6-yl)amino-6-(1-methylpiperidin-4-yl)-[1,3,5]triazine] | 300
CCN(CCNc1nc(Nc2ccc3nc(C)cc(N(C)C)c3c2)nc(Nc2ccc3nc(C)cc(N(C)C)c3c2)n1)c1cccc(C)c1 [Example 28] | 1500
Cc1cc(N)c2cc(Nc3nc(Nc4ccc5nc(C)cc(N)c5c4)nc(NC4CCN(Cc5ccccc5)C4)n3)ccc2n1 (stereo not drawn) [Example 41] | 9900
Cc1cc(N)c2cc(Nc3nc(Nc4ccc5nc(C)cc(N)c5c4)nc(N4CCN(C5CCCC5)CC4)n3)ccc2n1 [Example 43] | 10000
Cc1cc(N)c2cc(Nc3nc(NCc4ccc([N+](C)(C)C)cc4)nc(Nc4ccc5nc(C)cc(N)c5c4)n3)ccc2n1 [Example 60] | 5700
Cc1cc(N)c2cc(Nc3nc(Nc4ccc5nc(C)cc(N)c5c4)nc(N4CCN(C(=O)c5ccco5)CC4)n3)ccc2n1 [Example 68] | 11500
Cc1cc(N)c2cc(Nc3nc(Nc4ccc5nc(C)cc(N)c5c4)nc(N4CCN(C5CCCCCCC5)CC4)n3)ccc2n1 [Example 77] | 5600
Cc1cc(N)c2cc(Nc3nc(Nc4ccc5nc(C)cc(N)c5c4)nc(N4CCCC4c4cccnc4)n3)ccc2n1 (stereo not drawn) [Example 86] | 18900
Cc1cc(N)c2cc(Nc3nc(Nc4ccc5nc(C)cc(N)c5c4)nc(N(Cc4ccccc4)C4CN5CCC4CC5)n3)ccc2n1 (stereo not drawn) [Example 92] | 7800
Cc1cc(N)c2cc(Nc3nc(Nc4ccc5nc(C)cc(N)c5c4)nc(NC4CCN(Cc5ccccc5)CC4)n3)ccc2n1 [Example 93] | 9300
Cc1cc(N)c2cc(Nc3nc(Nc4ccc5nc(C)cc(N)c5c4)nc(Oc4ccccc4Cl)n3)ccc2n1 [Example 103] | 11300
COc1cccc(Oc2nc(Nc3ccc4nc(C)cc(N)c4c3)nc(Nc3ccc4nc(C)cc(N)c4c3)n2)c1 [Example 104] | 11400
Cc1cc(N)c2cc(Nc3nc(Nc4ccc5nc(C)cc(N)c5c4)nc(OCCN(C)Cc4ccccc4)n3)ccc2n1 [Example 105] | 11600
Cc1cc(N(C)C)c2cc(Nc3nc(Nc4ccc5nc(C)cc(N(C)C)c5c4)nc(Oc4ccncc4)n3)ccc2n1 [Example 115, 2,4-bis(4-dimethylamino-2-methylquinolin-6-yl)amino-6-(pyridin-4-yl)oxy-[1,3,5]triazine] | 1600

SMILES | IC50 [nM]
Cc1cc(N)c2cc(Nc3nc(Nc4ccc5nc(C)cc(N)c5c4)nc(Sc4ccccc4Cl)n3)ccc2n1 [Example 118] | 13700
Cc1cc(N)c2cc(Nc3nc(Nc4ccc5nc(C)cc(N)c5c4)nc(Sc4ccccn4)n3)ccc2n1 [Example 120] | 17800
COc1ccc(CSc2nc(Nc3ccc4nc(C)cc(N)c4c3)nc(Nc3ccc4nc(C)cc(N)c4c3)n2)cc1 [Example 124] | 6200
Cc1cc(N)c2cc(Nc3nc(Nc4ccc5nc(C)cc(N)c5c4)nc(Sc4ncccn4)n3)ccc2n1 [Example 126] | 11400
Cc1cc(C)nc(Sc2nc(Nc3ccc4nc(C)cc(N)c4c3)nc(Nc3ccc4nc(C)cc(N)c4c3)n2)n1 [Example 127] | 15900
Cc1cc(N)c2cc(Nc3nc(Nc4ccc5nc(C)cc(N)c5c4)nc(Sc4ccc5ccccc5n4)n3)ccc2n1 [Example 128, 2,4-bis(4-amino-2-methylquinolin-6-yl)amino-6-(quinolin-2-yl)thio-[1,3,5]triazine] | 2860
Cc1cc(N(C)C)c2cc(Nc3nc(Nc4ccc5nc(C)cc(N(C)C)c5c4)nc(N4CCCN(C)CC4)n3)ccc2n1 [Example 135, 2,4-bis(4-dimethylamino-2-methylquinolin-6-yl)amino-6-(1-methylhomopiperazin-4-yl)-[1,3,5]triazine] | 70
Cc1cc(N(C)C)c2cc(Nc3nc(Nc4ccc5nc(C)cc(N(C)C)c5c4)nc(N4CCN(CCCN(C)C)CC4)n3)ccc2n1 [Example 136, 2,4-bis(4-dimethylamino-2-methylquinolin-6-yl)amino-6-[1-(3-dimethylaminopropyl)piperazin-4-yl]-[1,3,5]triazine] | 26
CCCN(CCC)CCN1CCN(c2nc(Nc3ccc4nc(C)cc(N(C)C)c4c3)nc(Nc3ccc4nc(C)cc(N(C)C)c4c3)n2)CC1 [Example 137, 2,4-bis(4-dimethylamino-2-methylquinolin-6-yl)amino-6-[1-(2-dipropylaminoethyl)piperazin-4-yl]-[1,3,5]triazine] | 150
Cc1cc(N(C)C)c2cc(Nc3nc(Nc4ccc5nc(C)cc(N(C)C)c5c4)nc(N(C)C4CCN(C)CC4)n3)ccc2n1 [Example 138, 2,4-bis(4-dimethylamino-2-methylquinolin-6-yl)amino-6-[N-(1-methylpiperidin-4-yl)-N-methylamino]-[1,3,5]triazine] | 61
Cc1cc(N(C)C)c2cc(Nc3nc(Nc4ccc5nc(C)cc(N(C)C)c5c4)nc(N4CCCN(CCCN5CCCC5)CC4)n3)ccc2n1 [Example 139] | 45
Cc1cc(N(C)C)c2cc(Nc3nc(NCCN4CCN(Cc5ccccc5)CC4)nc(Nc4ccc5nc(C)cc(N(C)C)c5c4)n3)ccc2n1 [Example 140] | 512
Cc1cc(N(C)C)c2cc(Nc3nc(Nc4ccc5nc(C)cc(N(C)C)c5c4)nc(N4CCN(CCOCCO)CC4)n3)ccc2n1 [Example 141, 2,4-bis(4-dimethylamino-2-methylquinolin-6-yl)amino-6-{[1-2-(2-hydroxyethyl)oxyethyl]piperazin-4-yl}-[1,3,5]triazine] | 96
Cc1cc(N(C)C)c2cc(Nc3nc(NCC[N+](C)(C)C)nc(Nc4ccc5nc(C)cc(N(C)C)c5c4)n3)ccc2n1 [Example 142] | 1560
Cc1cc(N(C)C)c2cc(Nc3nc(Nc4ccc5nc(C)cc(N(C)C)c5c4)nc(N4CCN(C5CCCC5)CC4)n3)ccc2n1 [Example 143] | 520
Cc1cc(N(C)C)c2cc(Nc3nc(Nc4ccc5nc(C)cc(N(C)C)c5c4)nc(N4CCN(c5ccncc5)CC4)n3)ccc2n1 [Example 144, 2,4-bis(4-dimethylamino-2-methylquinolin-6-yl)amino-6-[1-(pyridin-4-yl)piperazin-4-yl]-[1,3,5]triazine] | 40
CCN(CCN(C)C)c1nc(Nc2ccc3nc(C)cc(N(C)C)c3c2)nc(Nc2ccc3nc(C)cc(N(C)C)c3c2)n1 [Example 146] | 175
CC1=NCCN1c1nc(Nc2ccc3nc(C)cc(N(C)C)c3c2)nc(Nc2ccc3nc(C)cc(N(C)C)c3c2)n1 [Example 148] | 1500
Cc1cc(N(C)C)c2cc(Nc3nc(Nc4ccc5nc(C)cc(N(C)C)c5c4)nc(N4CCC[C@H]4CN4CCCC4)n3)ccc2n1 [Example 149, 2,4-bis(4-dimethylamino-2-methylquinolin-6-yl)amino-6-[2(S)-(pyrrolidin-1-yl)methylpyrrolidin-1-yl]-[1,3,5]triazine] | 96
CC(=O)NCCNc1nc(Nc2ccc3nc(C)cc(N(C)C)c3c2)nc(Nc2ccc3nc(C)cc(N(C)C)c3c2)n1 [Example 150] | 2470
